Reference: US20240150368A1, “ULK INHIBITORS AND METHODS OF USE THEREOF” (Deciphera Pharmaceuticals, LLC, priority 2022, published 2024)

Each compound was assayed on ULK kinase substrate ATG13 (pS318-ATG13) in A549 (KRAS mutant) cells (assay: pATG13 levels of mutant KRas A549 cells after treatment with ULK inhibitors in combination with trametinib (ELISA)). Details: not given.
Type: cell-based, human
Procedure: Cellular Inhibition of ULK Kinase Substrate ATG13 Protein pATG13 Levels of Mutant KRas A549 Cells after Treatment with ULK Inhibitors in Combination with Trametinib
A549 (KRAS mutant) human lung cancer cells (6,000 cells/well) were added to a 384-well tissue-culture treated plate in 50 μL of pre-warmed DMEM medium supplemented with 10% characterized fetal bovine serum (Invitrogen, Carlsbad, CA), 100 units/mL penicillin G, and 100 μg/mL streptomycin and allowed to grow overnight at 37° C., 5% CO2, and 95% humidity. The following day, 10 μL of media containing trametinib or DMSO as a control was added to wells. The final concentration of trametinib in wells was 250 nM. A dose response of a test compound (0.6 μL per well) was added. DMSO (0.6 μL) was added to control wells. The plate was briefly shaken to mix wells and then incubated at 37° C. overnight. The next day, the media was aspirated and cells were washed with Dulbecco's Phosphate Buffered Saline (Gibco). Cells were lysed using MPER lysis buffer (Pierce, Rockford, IL) containing Halt Phosphatase and Protease Inhibitors (Pierce, Rockford, IL) and Phosphatase inhibitor cocktail 2 (Sigma, St. Louis, MO) at 4° C. for 10 min with shaking.
Cellular levels of phospho-Serine 318 ATG13 (pATG13) were measured via an ELISA method. Total ATG13 Antibody (Cell Signaling Cat #13273) was used to coat the wells. The plate was incubated at 4° C. overnight and washed with ELISA wash buffer (Biolegend Cat #421601). The wells were then blocked with assay diluent (Biolegend Cat #421203) for 1 h at rt. Plate wells were washed with ELISA wash buffer. Cell lysate was added to wells and incubated at rt for 2 h. Plate wells were washed with ELISA wash buffer. Biotinylated pS318-ATG13 antibody (Rockland Immunochemicals Cat #600-401-C49) was diluted in assay diluent and added to each well and incubated at rt for 1 h. Plate wells were washed with ELISA wash buffer. Streptavidin linked to horseradish peroxidase (Thermo Fisher Cat #21140) was diluted in assay diluent and added to each well and incubated at rt for 1 h. Plate wells were washed with ELISA wash buffer. High sensitivity TMB substrate (Biolegend Cat #421101) was added to each well and incubated at rt for 20 min. The reaction was stopped with 2N Sulfuric Acid. The plate was analyzed at on a plate reader measuring absorbance at 450 nm and 540 nm (background). Signal was calculated by first subtracting the background absorbance at 540 nm from the absorbance at 450 nm for each well. Next, the background corrected absorbance at 450 nm from blank wells was subtracted from test wells. Data was compared to control wells to determine % ATG13 phosphorylation. GraphPad Prism was used to calculate IC50 values.

Structure (SMILES)	IC50 [nM]
CC/C(Nc1cnn(C2CCN(C(C)C)CC2)c1)=C1/C(=O)Nc2ccc(C(=O)NCC3CCC(C4CC4)O3)cc21 (stereo not drawn) [Example 3, (Z)—N-((5-cyclopropyltetrahydrofuran-2-yl)methyl)-3-(1-((1-(1-isopropylpiperidin-4-yl)-1H-pyrazol-4-yl)amino)propylidene)-2-oxoindoline-5-carboxamide]	100 to 300
CC/C(Nc1cnn(C(C)C)c1)=C1/C(=O)Nc2ccc(C(=O)NCC3(C)COC3)cc21 [Example 5, (Z)-3-(1-((1-isopropyl-1H-pyrazol-4-yl)amino)propylidene)-N-((3-methyloxetan-3-yl)methyl)-2-oxoindoline-5-carboxamide]	> 600
CC/C(Nc1cnn(C2CCN(C(C)C)CC2)c1)=C1/C(=O)Nc2ccc(C(=O)N(C)CC(F)(F)F)cc21 [Example 7]	≤ 100
CC/C(Nc1cnn(C2CCN(C(C)C)CC2)c1)=C1/C(=O)Nc2ccc(C(=O)N(C)CCOC)cc21 [Example 9]	300 to 600
CC/C(Nc1cnn(C2CCN(C(C)C)CC2)c1)=C1/C(=O)Nc2ccc(C(=O)NCC(C)C)cc21 [Example 16]	≤ 100
CC/C(Nc1cnn(C2CCN(C(C)C)CC2)c1)=C1/C(=O)Nc2ccc(C(=O)NCC3CCO3)cc21 (stereo not drawn) [Example 21]	> 600
CC/C(Nc1cnn(C2CCN(C(C)C)CC2)c1)=C1/C(=O)Nc2ccc(C(=O)NCCC#N)cc21 [Example 26]	> 600
CC/C(Nc1cnn(C2CCN(C(C)C)CC2)c1)=C1/C(=O)Nc2ccc(C(=O)NCC(C)(C)OC)cc21 [Example 27]	100 to 300
CC/C(Nc1cnn(C2CCN(C(C)C)CC2)c1)=C1/C(=O)Nc2ccc(C(=O)NCC(C)(C)O)cc21 [Example 28]	> 600
CC/C(Nc1cnn(C2CCN(C(C)C)CC2)c1)=C1/C(=O)Nc2ccc(C(=O)NC3CC(F)(F)C3)cc21 [Example 29]	300 to 600
CC/C(Nc1cnn(C2CCN(C(C)C)CC2)c1)=C1/C(=O)Nc2ccc(C(=O)NCC3CC(F)(F)C3)cc21 [Example 30]	100 to 300
CC/C(Nc1cnn(C2CCN(C(C)C)CC2)c1)=C1/C(=O)Nc2ccc(C(=O)NCCC(F)(F)F)cc21 [Example 31]	≤ 100
CC/C(Nc1cnn(C2CCN(C(C)C)CC2)c1)=C1/C(=O)Nc2ccc(C(=O)NCC3CC3)cc21 [Example 42]	≤ 100
CC/C(Nc1cnn(C2CCN(C(C)C)CC2)c1)=C1/C(=O)Nc2ccc(C(=O)NCC3CCCC3)cc21 [Example 44]	≤ 100
CC/C(Nc1cnn(C2CCN(C)CC2)c1)=C1/C(=O)Nc2ccc(C(=O)NC[C@H]3CCCO3)cc21 [Example 51]	> 600
CC/C(Nc1cnn(C2CC3CCC(C2)N3C)c1)=C1/C(=O)Nc2ccc(C(=O)NC[C@H]3CCCO3)cc21 (stereo partly drawn) [Example 53]	> 600
CC/C(Nc1ccc(N2CC3CC(C2)N3C)cc1)=C1/C(=O)Nc2ccc(C(=O)NCC(F)(F)F)cc21 [Example 60]	≤ 100
CC/C(Nc1ccc(N2C[C@H]3CN(C)C[C@H]3C2)cc1)=C1/C(=O)Nc2ccc(C(=O)NCC(F)(F)F)cc21 [Example 61]	≤ 100
CC/C(Nc1ccc(N2CCN(C(C)C)CC2)cc1)=C1/C(=O)Nc2cc(F)c(C(=O)NCC(F)(F)F)cc21 [Example 100]	300 to 600
CC/C(Nc1cnn(C2CCOCC2)c1)=C1/C(=O)Nc2ccc(C(=O)NCC(F)(F)F)cc21 [Example 106]	100 to 300
CC/C(Nc1cnn(C(C)C)c1)=C1/C(=O)Nc2ccc(C(=O)NCCC#N)cc21 [Example 127]	> 600
CC/C(Nc1cnn(C(C)C)c1)=C1/C(=O)Nc2ccc(C(=O)NC[C@@H](C)OC)cc21 [Example 128]	300 to 600
CC/C(Nc1cnn(C(C)C)c1)=C1/C(=O)Nc2ccc(C(=O)NCC3CC(F)(F)C3)cc21 [Example 134]	≤ 100
CC/C(Nc1cnn(C(C)C)c1)=C1/C(=O)Nc2ccc(C(=O)NCC3CCC4(CCC4)O3)cc21 (stereo not drawn) [Example 138]	> 600
CC/C(Nc1cnn(C(F)F)c1)=C1/C(=O)Nc2ccc(C(=O)NCC(C)C)cc21 [Example 147]	100 to 300
CC/C(Nc1cnn(CC)c1)=C1/C(=O)Nc2ccc(C(=O)NCC3(F)CC3)cc21 [Example 153]	≤ 100
CC/C(Nc1cnn(C(C)C)c1)=C1/C(=O)Nc2ccc(C(=O)NCC3(C#N)CC3)cc21 [Example 156]	≤ 100
CC/C(Nc1cnn(C(C)C)c1)=C1/C(=O)Nc2ccc(C(=O)NCC3(C)CCOC3)cc21 (stereo not drawn) [Example 168]	300 to 600

Other lines, results leading:

IC50 [nM]	Structure (SMILES)
100 to 300	CC/C(Nc1cnn(C(C)C)c1)=C1/C(=O)Nc2ccc(C(=O)NCC(F)(F)F)cc21 [Example 4, (Z)-3-(1-((1-isopropyl-1H-pyrazol-4-yl)amino)propylidene)-2-oxo-N-(2,2,2-trifluoroethyl)indoline-5-carboxamide]
≤ 100	CC/C(Nc1cnn(C2CCN(C(C)C)CC2)c1)=C1/C(=O)Nc2ccc(C(=O)NCC(F)(F)F)cc21 [Example 8]
≤ 100	C/C(Nc1cnn(C(C)C)c1)=C1/C(=O)Nc2ccc(C(=O)NCC(F)(F)F)cc21 [Example 101]
100 to 300	CC/C(Nc1cnn(CCOC)c1)=C1/C(=O)Nc2ccc(C(=O)NCC(F)(F)F)cc21 [Example 102]
300 to 600	CC/C(Nc1cnn(CCN(C)C)c1)=C1/C(=O)Nc2ccc(C(=O)NCC(F)(F)F)cc21 [Example 103]
≤ 100	CC/C(Nc1cnn([C@@H]2CCOC2)c1)=C1/C(=O)Nc2ccc(C(=O)NCC(F)(F)F)cc21 [Example 105]
> 600	CC/C(Nc1cn(C(C)C)nn1)=C1/C(=O)Nc2ccc(C(=O)NCC(F)(F)F)cc21 [Example 122]
> 600	CC/C(Nc1cccnc1)=C1/C(=O)Nc2ccc(C(=O)NCC(F)(F)F)cc21 [Example 124]
300 to 600	CC/C(Nc1cnn(C(C)C)c1)=C1/C(=O)Nc2ccc(C(=O)NCCOC)cc21 [Example 126]
≤ 100	CC/C(Nc1cnn(C2CC(F)(F)C2)c1)=C1/C(=O)Nc2ccc(C(=O)NCC(F)(F)F)cc21 [Example 144]
100 to 300	CC/C(Nc1ccccn1)=C1/C(=O)Nc2ccc(C(=O)NCC(F)(F)F)cc21 [Example 145]
100 to 300	CC/C(Nc1cnn(C(C)C)c1)=C1/C(=O)Nc2ccc(C(=O)NCC(C)(C)OC)cc21 [Example 148]
100 to 300	CC/C(Nc1cc(C(F)(F)F)ccn1)=C1/C(=O)Nc2ccc(C(=O)NCC(F)(F)F)cc21 [Example 149]
100 to 300	CC/C(Nc1cnn(CC(C)OC)c1)=C1/C(=O)Nc2ccc(C(=O)NCC(F)(F)F)cc21 (stereo not drawn) [Example 157]
100 to 300	CC/C(Nc1cnn(CC(C)OC)c1)=C1/C(=O)Nc2ccc(C(=O)NCC(F)(F)F)cc21 (stereo not drawn) [Example 158]
100 to 300	CC/C(Nc1cnn(C(C)CC)c1)=C1/C(=O)Nc2ccc(C(=O)NCC(F)(F)F)cc21 (stereo not drawn) [Example 159]
100 to 300	CC/C(Nc1cnn(CC(F)(F)F)c1)=C1/C(=O)Nc2ccc(C(=O)NCC(C)(C)F)cc21 [Example 160]
≤ 100	CC/C(Nc1cnn(C(C)C)c1)=C1/C(=O)Nc2ccc(C(=O)NCCC(F)(F)F)cc21 [Example 166]
100 to 300	CC/C(Nc1cnn(C(F)(F)F)c1)=C1/C(=O)Nc2ccc(C(=O)NCC(C)C)cc21 [Example 169]

What follows are compounds tested against T1, LRRK2 kinase (Homo sapiens, UniProt Q5S007) (assay: Biochemical assay for LRRK2 (coupled pyruvate kinase/lactate dehydrogenase assay)). Details: 26.4 nM LRRK2, 1 mM ATP; read-out: LRRK2 (inhibition of LRRK2 kinase activity, IC50).
T1 construct: (residues 970-2528; ID NO; 3); purchased Thermo Fisher
Procedure: Biochemical Assay for LRRK2 (SEQ. ID NO. 3)
Activity of LRRK2 kinase was determined spectroscopically using a coupled pyruvate kinase/lactate dehydrogenase assay that continuously monitors the ATP hydrolysis-dependent oxidation of NADH (e.g., Schindler et al. Science (2000) 289: 1938-1942). Assays were conducted in 384-well plates (100 μL final volume) using 26.4 nM LRRK2 (Thermo Fisher), 0.1 mM peptide substrate (RLGRDKYKTLRQIRQ), 1.5 units pyruvate kinase, 2.1 units lactate dehydrogenase, 1 mM phosphoenol pyruvate, 0.28 mM NADH and 1 mM ATP in assay buffer (100 mM Tris, pH 7.5, 15 mM MgCl2, 0.5 mM DTT, 0.004% (w/v) BSA, and 0.004% Triton X-100). Inhibition of LRRK2 was measured by adding serial diluted test compound (final assay concentration of 1% DMSO). A decrease in absorption at 340 nm was monitored continuously for 6 h at 30° C. on a multi-mode microplate reader (BioTek). The reaction rate was calculated using the 2-3 h time frame. The reaction rate at each concentration of compound was converted to percent inhibition using controls (i.e., reaction with no test compound and reaction with a known inhibitor) and IC50 values were calculated using software routines in Prism (GraphPad software).

T1 sequence (Q5S007 with tags, fused parts or gaps): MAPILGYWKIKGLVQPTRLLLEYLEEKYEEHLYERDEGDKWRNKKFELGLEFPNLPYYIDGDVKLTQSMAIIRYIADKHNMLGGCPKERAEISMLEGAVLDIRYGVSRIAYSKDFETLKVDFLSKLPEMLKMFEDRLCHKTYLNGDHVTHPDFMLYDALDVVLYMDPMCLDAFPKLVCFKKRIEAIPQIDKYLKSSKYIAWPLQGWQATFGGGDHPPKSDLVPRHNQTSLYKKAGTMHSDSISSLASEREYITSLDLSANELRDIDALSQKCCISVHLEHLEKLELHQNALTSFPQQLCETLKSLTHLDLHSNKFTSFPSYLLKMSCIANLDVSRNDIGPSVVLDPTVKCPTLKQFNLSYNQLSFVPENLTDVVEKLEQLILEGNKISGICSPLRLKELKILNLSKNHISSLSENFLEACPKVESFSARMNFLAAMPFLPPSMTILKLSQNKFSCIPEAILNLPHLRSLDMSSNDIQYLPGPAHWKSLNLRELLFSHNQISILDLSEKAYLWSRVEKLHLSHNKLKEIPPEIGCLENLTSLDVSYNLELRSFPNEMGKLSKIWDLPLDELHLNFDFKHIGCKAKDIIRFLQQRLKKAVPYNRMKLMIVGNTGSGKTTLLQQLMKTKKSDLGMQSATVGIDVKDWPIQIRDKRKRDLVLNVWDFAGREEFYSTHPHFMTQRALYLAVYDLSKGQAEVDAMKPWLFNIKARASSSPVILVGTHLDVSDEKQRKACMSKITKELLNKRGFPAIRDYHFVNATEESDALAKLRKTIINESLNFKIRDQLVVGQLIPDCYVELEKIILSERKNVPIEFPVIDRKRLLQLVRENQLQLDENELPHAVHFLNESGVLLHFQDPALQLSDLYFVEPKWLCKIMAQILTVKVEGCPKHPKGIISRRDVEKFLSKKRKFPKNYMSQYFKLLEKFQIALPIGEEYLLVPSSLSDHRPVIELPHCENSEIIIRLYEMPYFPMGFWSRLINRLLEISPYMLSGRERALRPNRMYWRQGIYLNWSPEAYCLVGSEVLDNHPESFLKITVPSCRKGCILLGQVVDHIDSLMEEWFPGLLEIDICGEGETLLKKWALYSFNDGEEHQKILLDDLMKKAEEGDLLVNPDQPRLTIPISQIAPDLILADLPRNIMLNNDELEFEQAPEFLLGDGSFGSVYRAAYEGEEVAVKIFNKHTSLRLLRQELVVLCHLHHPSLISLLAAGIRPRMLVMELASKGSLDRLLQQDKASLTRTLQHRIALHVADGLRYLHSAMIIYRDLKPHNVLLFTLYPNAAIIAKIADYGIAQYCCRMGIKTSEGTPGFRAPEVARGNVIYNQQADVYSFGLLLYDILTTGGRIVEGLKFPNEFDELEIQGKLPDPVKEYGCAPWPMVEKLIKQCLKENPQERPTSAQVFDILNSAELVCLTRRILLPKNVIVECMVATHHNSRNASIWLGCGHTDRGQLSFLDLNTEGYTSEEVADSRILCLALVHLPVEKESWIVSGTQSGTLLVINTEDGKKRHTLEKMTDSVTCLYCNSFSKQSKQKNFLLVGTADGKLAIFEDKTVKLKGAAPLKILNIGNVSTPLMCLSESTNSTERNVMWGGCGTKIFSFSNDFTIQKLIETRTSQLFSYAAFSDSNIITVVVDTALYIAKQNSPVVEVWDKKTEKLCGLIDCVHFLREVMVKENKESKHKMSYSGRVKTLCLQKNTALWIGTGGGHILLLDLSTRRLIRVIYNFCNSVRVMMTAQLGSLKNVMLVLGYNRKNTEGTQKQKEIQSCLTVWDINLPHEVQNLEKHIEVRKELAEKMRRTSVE

Structure (SMILES)	IC50 [nM]
CC/C(Nc1cnn(C2CCN(C(C)C)CC2)c1)=C1/C(=O)Nc2ccc(C(=O)NCCC#N)cc21 [Example 26]	100 to 300
CC/C(Nc1cnn(C2CCN(C(C)C)CC2)c1)=C1/C(=O)Nc2ccc(C(=O)NCCC(F)(F)F)cc21 [Example 31]	≤ 100

Further lines, results first:

IC50 [nM]	Structure (SMILES)
≤ 100	CC/C(Nc1cnn(C(C)C)c1)=C1/C(=O)Nc2ccc(C(=O)NCC(F)(F)F)cc21 [Example 4, (Z)-3-(1-((1-isopropyl-1H-pyrazol-4-yl)amino)propylidene)-2-oxo-N-(2,2,2-trifluoroethyl)indoline-5-carboxamide]
100 to 300	CC/C(Nc1cnn(C2CCN(C(C)C)CC2)c1)=C1/C(=O)Nc2ccc(C(=O)NCC(F)(F)F)cc21 [Example 8]
